Data reported in patent US20260049331A1, “Sense-and-Response of Proteins, Peptides, and Small Molecules Using Ligand-Induced Dimerization Activating RNA Editing (LIDAR)” (The Board of Trustees of the Leland Stanford Junior …, priority 2022, published 2026).

B1: CX3CL1: ligand of CX3CR1-LIDAR (protein)
chain: QHHGVTKCNITCSKMTSKIPVALLIHYQQNQASCGKRAIILETRQHRLFCADPKEQWVKDAMQHLDRQAAALTRNG

Tests used:
[1] = test system: CCR6-based LIDAR outputting iCASP9 (cLSM01-C5 cells); experiment: LIDAR-induced cell apoptosis with iCASP9 output in stable cell line cLSM01-C5; type: cell-based; details: only when both CCL20 and AP1903 are present; flow cytometry and microscopy; FIG. 9F
Method: In terms of generalizing functional outputs, LIDAR was used to output iCASP9 as a ligand-dependent cell death controller (13) (FIG. 9E), as iCASP9 induces apoptosis in response to the dimerizing molecule AP1903. A monoclonal cell line was generated (cLSM01-C5) expressing all three components of CCR6-based LIDAR by stable PiggyBac integrations. […] Another functional output was then tested, tobacco etch virus (TEV) protease, given our expertise (14) and its broad use (15) in synthetic circuits. A LIDAR-produced TEV protease rescues a fluorescent protein linked via a TEV protease cleavage site to a degron (FIG. 9G). Its dose response curve resembles that of the corresponding LIDAR that directly outputs EGFP (FIG. 9H and FIG. 13F). […] This indicates the potential for LIDAR to be implemented in more complex circuits (16).

[2] = test system: AVPR-LIDAR and CX3CR1-LIDAR; experiment: orthogonal ChaCha-like LIDAR receptors (AVPR-LIDAR and CX3CR1-LIDAR) in the same cell; type: cell-based, human; details: MCP/MS2 reporter outputs EGFP, PCP/PP7 reporter outputs mTagBFP; FIG. 10K
Method: To maintain a fast design-build-test cycle, unless specified, all prototyping experiments were performed by transiently co-transfecting receptor-encoding DNA plasmids into human embryonic kidney (HEK) 293 cells.
To program more complex multi-cellular behaviors, as well as to integrate multiple inputs for targeted cell therapies, it is often required to have receptors that process orthogonal signals in the same cell. In our most commonly used configuration (Tango-like LIDAR), the β-arrestin2-RBP fusion protein is recruited to all GPCRs without discrimination. This means that with two different GPCR-LIDAR receptors (e.g., AVPR-based LIDAR and CX3CR1-based LIDAR) the system would only be able to produce one output, triggered by either ligand. In the inverted version, the ADAR2dd and the RBP are interchanged to obtain the GPCR-RBP and β-arrestin2-ADAR2dd fusion proteins, analogous to TANGO vs. ChaCha receptors (25) (FIG. 10J). Because a separate RBP is needed for each receptor. MCP was used for a reporter RNA harboring MS2 loops and outputting EGFP and PP7 bacteriophage coat protein (PCP) for a reporter RNA harboring PP7 loops and outputting mTagBFP.

[3] = target: T1, CCR6-based LIDAR (Homo sapiens, UniProt P51684); experiment: CCR6-based LIDAR sensing of secreted or membrane-bound CCL20 from sender cells; type: cell-based; details: conditioned media from CCL20-secreting cells or co-culture with cells displaying CCL20; FIG. 10A-D
T1 construct: ADAR2dd (deaminase domain of ADAR2); expressed in transfected cells; host or cells: HEK293 (receiver cells)
T1 sequence (P51684 whole entry, the tested form may be a part): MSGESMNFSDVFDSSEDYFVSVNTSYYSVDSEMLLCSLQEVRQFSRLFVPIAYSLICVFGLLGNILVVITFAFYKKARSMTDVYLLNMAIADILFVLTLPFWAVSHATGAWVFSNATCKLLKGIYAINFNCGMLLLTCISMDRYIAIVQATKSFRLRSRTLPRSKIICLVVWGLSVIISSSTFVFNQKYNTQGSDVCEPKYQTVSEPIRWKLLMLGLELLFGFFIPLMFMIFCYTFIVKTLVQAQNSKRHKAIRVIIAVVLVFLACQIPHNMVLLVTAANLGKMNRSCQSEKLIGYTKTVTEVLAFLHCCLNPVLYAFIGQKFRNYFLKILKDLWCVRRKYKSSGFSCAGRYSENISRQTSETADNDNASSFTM
T1 sequence (P32121 whole entry partner, the tested form may be a part): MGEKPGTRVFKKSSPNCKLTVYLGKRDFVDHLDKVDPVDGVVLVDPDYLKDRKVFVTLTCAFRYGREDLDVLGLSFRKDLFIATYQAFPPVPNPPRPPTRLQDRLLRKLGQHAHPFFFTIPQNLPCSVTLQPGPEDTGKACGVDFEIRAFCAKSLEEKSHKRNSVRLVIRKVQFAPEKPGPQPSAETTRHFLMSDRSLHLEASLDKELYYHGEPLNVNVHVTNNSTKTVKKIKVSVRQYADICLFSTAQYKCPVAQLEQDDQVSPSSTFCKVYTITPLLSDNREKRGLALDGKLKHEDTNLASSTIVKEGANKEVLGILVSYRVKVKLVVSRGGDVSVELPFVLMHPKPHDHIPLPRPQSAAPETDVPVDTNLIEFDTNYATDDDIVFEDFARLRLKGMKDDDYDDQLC
Description: Inspired by examples from synNotch (19, 20) and given the advantage that LIDAR could potentially sense both membrane-bound and soluble ligands. LIDAR was used to drive cell-cell interactions to ultimately program complex multicellular behaviors (21-23). CCR6-based LIDAR senses its ligand, CCL20 (FIG. 10A-D), when the receiver cells are either exposed to conditioned media from CCL20-secreting cells (FIG. 10A, B) or co-cultured with cells displaying CCL20 on their surface (FIG. 10C, D). […] Receiver cells surrounding cells that produce secreted ligands were plated (FIG. 10E), a response gradient was observed going from the sender cells outwards (FIG. 10F). In contrast, when the receiver cells with sender cells producing a membrane-bound ligand were tested, the response pattern is limited to the sender-receiver interface (FIG. 10G, H). The images were quantified to extract the LIDAR output intensity profiles in response to membrane-bound and secreted ligands.

[4] = target: GPCR fused to MCP (inverted GPCR LIDAR design; GPCRs not named); experiment: cell-based or functional assay

Molecule | cell death [1] | output produced by each ligand in the same cell [2] | further results
CC[C@H](C(=O)N1CCCC[C@H]1C(=O)O[C@H](CCc1ccc(OC)c(OC)c1)c1cccc(OCC(=O)NCCNC(=O)COc2cccc([C@@H](CCc3ccc(OC)c(OC)c3)OC(=O)[C@@H]3CCCCN3C(=O)[C@@H](CC)c3cc(OC)c(OC)c(OC)c3)c2)c1)c1cc(OC)c(OC)c(OC)c1 [AP1903, reference compound] | Substantial cell death |  | 
NC(=O)CC[C@@H]1NC(=O)[C@H](Cc2ccccc2)NC(=O)[C@H](Cc2ccc(O)cc2)NC(=O)[C@@H](N)CSSC[C@@H](C(=O)N2CCC[C@H]2C(=O)N[C@@H](CCCN=C(N)N)C(=O)NCC(N)=O)NC(=O)[C@H](CC(N)=O)NC1=O [AVP, Arginine vasopressin, reference compound] |  | EGFP exclusively | 
CCL20: chemokine, GPCR ligand of CCR6 | Substantial cell death |  | ligand sensing by receiver cells [3]: senses
β-arrestin2-ADAR2dd (inverted / ChaCha-like LIDAR) (from UniProt P32121 1-409; P78563 299-701) |  |  | fold activation of inverted GPCR LIDAR [4]: < 17 ×
B1 |  | mTagBFP exclusively | 
